Reference: patent US12435044B2, “Pyridazinone herbicides and pyridazinone intermediates used to prepare a herbicide” (FMC Corporation, priority 2018, dated 2025)

How the values were obtained:
Assay in all cases: Test E pre-/postemergence greenhouse test
Format in all cases: in vivo
[1] = tested on: surinam grass (Brachiaria decumbens); settings: Preemergence
Excerpt: (§1) Seeds of plant species selected from corn (Zea mays), soybean (Glycine max), velvetleaf (Abutilon theophrasti), lambsquarters (Chenopodium album), poinsettia, wild (Euphorbia heterophylla), pigweed, palmer (Amaranthus palmeri), waterhemp (common waterhemp, Amaranthus rudis), surinam grass (Brachiaria decumbens), crabgrass, large (Digitaria sanguinalis), crabgrass, Brazil (Digitaria horizontalis), panicum, fall (Panicum dichotomiflorum), foxtail, giant (Setaria faberii), foxtail, green (Setaria viridis), goosegrass (Eleusine indica), johnsongrass (Sorghum halepense), ragweed (common ragweed, Ambrosia elatior), barnyardgrass (Echinochloa crus-galli), sandbur (southern sandbur, Cenchrus echinatus), arrowleaf sida (Sida rhombifolia), ryegrass, Italian (Lolium multiflorum), dayflower, VA (Virginia (VA) dayflower, Commelina virginica), field bindweed (Convolvulus arvensis), morningglory (Ipomoea coccinea), horseweed (Conyza canadensis), kochia (Kochia scoparia), nutsedge, yellow (Cyperus esculentus) and hairy beggarticks (Bidenspilosa), were planted into a silt loam soil and treated preemergence with test chemicals formulated in a non-phytotoxic solvent mixture which included a surfactant.
(§2) At the same time, plants selected from these crop and weed species and also waterhemp_RES1, (ALS & Triazine resistant common waterhemp, Amaranthus rudis), and waterhemp_RES2, (ALS & HPPD resistant common waterhemp, Amaranthus rudis) were planted in pots containing Redi-Earth® planting medium (Scotts Company, 14111 Scottslawn Road, Marysville, Ohio 43041) comprising spaghnum peat moss, vermiculite, wetting agent and starter nutrients were treated with postemergence applications of test chemicals formulated in the same manner. Plants ranged in height from 2 to 18 cm for postemergence treatments (1- to 4-leaf stage). Treated plants and controls were maintained in a greenhouse for 14 to 21 d, after which time all species were compared to controls and visually evaluated. Plant response ratings, summarized in Table E, are based on a scale of 0 to 100 where 0 is no effect and 100 is complete control. A dash (-) response means no test result.

[2] = tested on: horseweed (Conyza canadensis); settings: Postemergence
Excerpt: as §1, §2

[3] = tested on: crabgrass, large (Digitaria sanguinalis); settings: Preemergence
Excerpt: as §1, §2

[4] = tested on: foxtail, giant (Setaria faberii); settings: Preemergence
Excerpt: as §1, §2

[5] = tested on: pigweed, palmer (Amaranthus palmeri)
Excerpt: as §1, §2

[6] = tested on: soybean (Glycine max)
Excerpt: as §1, §2

[7] = tested on: ragweed (common ragweed, Ambrosia elatior)
Excerpt: as §1, §2

[8] = tested on: waterhemp (common waterhemp, Amaranthus rudis)
Excerpt: as §1, §2

[9] = tested on: panicum, fall (Panicum dichotomiflorum)
Excerpt: as §1, §2

[10] = tested on: corn (Zea mays)
Excerpt: as §1, §2

[11] = tested on: velvetleaf (Abutilon theophrasti); settings: Preemergence
Excerpt: as §1, §2

[12] = tested on: barnyardgrass (Echinochloa crus-galli); settings: Preemergence
Excerpt: as §1, §2

Cc1ccc2ccc(C)c(-c3c(O)c(Cl)nn(C)c3=O)c2c1 [Cpd. No. 20, 6-chloro-4-(2,7-dimethyl-1-naphthalenyl)-5-hydroxy-2-methyl-3(2H)-pyridazinone]
50: Plant response rating, Velvetleaf ([11]; 16 g ai/ha)
95: Plant response rating, Pigweed, Palmer ([5]; Preemergence, 62 g ai/ha) | Plant response rating, Ragweed ([7]; Postemergence, 62 g ai/ha) | Plant response rating, Ragweed ([7]; Postemergence, 125 g ai/ha) | Plant response rating, Ragweed ([7]; Preemergence, 31 g ai/ha) | Plant response rating, Ragweed ([7]; Preemergence, 62 g ai/ha) | Plant response rating, Waterhemp ([8]; Postemergence, 62 g ai/ha) | Plant response rating, Panicum, Fall ([9]; Postemergence, 125 g ai/ha)
60: Plant response rating, Foxtail, Giant ([4]; 31 g ai/ha) | Plant response rating, Pigweed, Palmer ([5]; Postemergence, 16 g ai/ha) | Plant response rating, Pigweed, Palmer ([5]; Postemergence, 125 g ai/ha) | Plant response rating, Ragweed ([7]; Preemergence, 16 g ai/ha) | Plant response rating, Waterhemp ([8]; Preemergence, 16 g ai/ha)
15: Plant response rating, Soybean ([6]; Postemergence, 31 g ai/ha) | Plant response rating, Soybean ([6]; Preemergence, 62 g ai/ha)
10: Plant response rating, Foxtail, Giant ([4]; 16 g ai/ha) | Plant response rating, Soybean ([6]; Postemergence, 16 g ai/ha) | Plant response rating, Corn ([10]; Postemergence, 62 g ai/ha) | Plant response rating, Corn ([10]; Postemergence, 125 g ai/ha)
100: Plant response rating, Surinam Grass ([1]; 125 g ai/ha) | Plant response rating, Waterhemp ([8]; Preemergence, 125 g ai/ha) | Plant response rating, Panicum, Fall ([9]; Preemergence, 125 g ai/ha) | Plant response rating, Velvetleaf ([11]; 125 g ai/ha) | Plant response rating, Barnyardgrass ([12]; 125 g ai/ha)
20: Plant response rating, Pigweed, Palmer ([5]; Preemergence, 16 g ai/ha) | Plant response rating, Corn ([10]; Postemergence, 31 g ai/ha)
30: Plant response rating, Soybean ([6]; Postemergence, 62 g ai/ha)
90: Plant response rating, Surinam Grass ([1]; 62 g ai/ha) | Plant response rating, Foxtail, Giant ([4]; 62 g ai/ha) | Plant response rating, Ragweed ([7]; Postemergence, 16 g ai/ha) | Plant response rating, Waterhemp ([8]; Postemergence, 125 g ai/ha) | Plant response rating, Panicum, Fall ([9]; Postemergence, 31 g ai/ha) | Plant response rating, Panicum, Fall ([9]; Postemergence, 62 g ai/ha) | Plant response rating, Velvetleaf ([11]; 62 g ai/ha)
70: Plant response rating, Pigweed, Palmer ([5]; Postemergence, 62 g ai/ha) | Plant response rating, Waterhemp ([8]; Preemergence, 31 g ai/ha) | Plant response rating, Panicum, Fall ([9]; Postemergence, 16 g ai/ha)
65: Plant response rating, Crabgrass, Large ([3]; 16 g ai/ha) | Plant response rating, Crabgrass, Large ([3]; 31 g ai/ha) | Plant response rating, Pigweed, Palmer ([5]; Postemergence, 31 g ai/ha)
0: Plant response rating, Soybean ([6]; Preemergence, 16 g ai/ha) | Plant response rating, Soybean ([6]; Preemergence, 125 g ai/ha) | Plant response rating, Corn ([10]; Preemergence, 16 g ai/ha) | Plant response rating, Corn ([10]; Preemergence, 31 g ai/ha) | Plant response rating, Corn ([10]; Preemergence, 62 g ai/ha) | Plant response rating, Corn ([10]; Preemergence, 125 g ai/ha) | Plant response rating, Barnyardgrass ([12]; 16 g ai/ha)
40: Plant response rating, Soybean ([6]; Postemergence, 125 g ai/ha)
5: Plant response rating, Corn ([10]; Postemergence, 16 g ai/ha)
35: Plant response rating, Surinam Grass ([1]; 16 g ai/ha) | Plant response rating, Pigweed, Palmer ([5]; Preemergence, 31 g ai/ha)
75: Plant response rating, Horseweed ([2]; 31 g ai/ha) | Plant response rating, Crabgrass, Large ([3]; 62 g ai/ha) | Plant response rating, Waterhemp ([8]; Postemergence, 16 g ai/ha) | Plant response rating, Waterhemp ([8]; Postemergence, 31 g ai/ha) | Plant response rating, Panicum, Fall ([9]; Preemergence, 16 g ai/ha) | Plant response rating, Barnyardgrass ([12]; 31 g ai/ha)
85: Plant response rating, Horseweed ([2]; 62 g ai/ha) | Plant response rating, Ragweed ([7]; Postemergence, 31 g ai/ha)
98: Plant response rating, Foxtail, Giant ([4]; 125 g ai/ha) | Plant response rating, Pigweed, Palmer ([5]; Preemergence, 125 g ai/ha) | Plant response rating, Ragweed ([7]; Preemergence, 125 g ai/ha) | Plant response rating, Waterhemp ([8]; Preemergence, 62 g ai/ha) | Plant response rating, Panicum, Fall ([9]; Preemergence, 31 g ai/ha) | Plant response rating, Panicum, Fall ([9]; Preemergence, 62 g ai/ha)
80: Plant response rating, Surinam Grass ([1]; 31 g ai/ha) | Plant response rating, Horseweed ([2]; 16 g ai/ha) | Plant response rating, Horseweed ([2]; 125 g ai/ha) | Plant response rating, Crabgrass, Large ([3]; 125 g ai/ha) | Plant response rating, Velvetleaf ([11]; 31 g ai/ha) | Plant response rating, Barnyardgrass ([12]; 62 g ai/ha)
